Measured values reported in publication PMC9218685, “Legume Plant Peptides as Sources of Novel Antimicrobial Molecules Against Human Pathogens” (Frontiers in Molecular Biosciences, 2022).
≈ marks a conversion by molar mass, not a printed value. Entries after “also recorded” stand apart in the source; their conditions may differ. Read-outs that look alike come from different tables or passages of the source. Peptide text beside a SMILES is read from it.

Legend:
Type in all cases: cell-based
[1] = tested on: Enterococcus faecalis (ATCC 29212); settings: for Ability to kill E. faecalis: 3 h, ~10^7 log phase bacteria, peptides ≤25 µM
Description: (§1) The following pathogenic bacterial strains were used: The Gram-positive Enterococcus faecalis (ATCC 29212), Staphylococcus aureus (HNCMO112011), Listeria monocytogenes (ATCC 19111) and the Gram-negative Pseudomonas aeruginosa (ATCC 27853), Escherichia coli (ATCC 8739), Salmonella enterica (ATCC 13076), Klebsiella pneumoniae (NCTC 13440), Acinetobacter baumannii (ATCC 17978) obtained from the ATCC (United States) and NCTC (National Collection of Type Cultures–England). For the antifungal experiment the Candida albicans W01 strain ([Ördögh et al., 2014]) was used. Antimicrobial activities of peptides against ∼10^7 log phase bacteria were tested in Potassium-Phosphate Buffer (PPB, pH 7.4) as described by [Jenei et al. (2020)] while anti-Candida assays were done according to [Szerencsés et al. (2021)]. The two-fold dilution series of peptides ranged from 25 μM to 0.125 μM, while that of the antibiotics ampicillin (Merck) and miconazole (Duchefa Biochemie) from […] to 0.1 μM. The lowest concentration of the antimicrobial agents, which completely eliminated viable bacteria or C. albicans were considered as the minimal bactericidal concentration (MBC) and minimal fungicidal concentration (MFC).
(§2) The minimal bactericidal concentrations (MBCs) were determined after 3 h of treatment of ∼10^7 log phase bacteria with 2-fold serial dilution of peptides from 25 µM to 0.8 µM. Only 25 of the 50 cationic M. truncatula peptides had activity at ≤25 µM (Supplementary Table S1). […] Three peptides were only active against two bacterial strains; NCR649 against L. monocytogenes and A. baumannii, NCR281 against L. monocytogenes and P. aeruginosa and NCR350 against A. baumannii and P. aeruginosa. […] None of the anionic NCR peptides affected the survival of the tested bacterial strains.

[2] = tested on: Candida albicans W01 strain; test: microbe, parasite or virus in culture; settings: read-out: MFC, minimal fungicidal concentration against C. albicans
Description: as §1

[3] = tested on: Acinetobacter baumannii (ATCC 17978); test: microbe, parasite or virus in culture; settings: for MBC: pH 7.4, read-out: MBC, minimal bactericidal concentration against A. baumannii
Description: as §1, §2

[4] = tested on: Pseudomonas aeruginosa (ATCC 27853); settings: for MBC Pseudomonas aeruginosa: ATCC 27853, 3 h
Description: as §1, §2

[5] = tested on: Escherichia coli (ATCC 8739); settings: for MBC Escherichia coli: ATCC 8739, 3 h
Description: as §1, §2

[6] = tested on: Listeria monocytogenes (ATCC 19111); settings: for MBC Listeria monocytogenes: ATCC 19111, 3 h
Description: as §1, §2

[7] = tested on: E. coli, S. enteritidis, P. aeruginosa, L. monocytogenes, S. aureus, E. faecalis, K. pneumoniae and A. baumannii; test: Antimicrobial activity assay, spectrum over the eight tested pathogenic bacteria; settings: 3 h treatment of ~10^7 log phase bacteria, peptides 25 to 0.8 µM; active = MBC ≤25 µM
Description: as §1
We investigated the antimicrobial activity of 78 NCR peptides from M. truncatula and 12 NCRs from other IRLC legumes as well as their shorter derivatives against E. coli, S. enteritidis, P. aeruginosa, L. monocytogenes, S. aureus, E. faecalis, K. pneumoniae and A. baumannii (Supplementary Table S1). In the selection of the M. truncatula peptides, we considered their symbiotic expression levels but also their physicochemical properties. The antimicrobial activity of NCRs has so far been attributed to cationic peptides, with the exception of one anionic peptide. To investigate whether other anionic NCRs are antimicrobial, in addition to the cationic peptides, neutral and anionic NCRs were also included covering a broad range of peptides with different net charges (NC: from 7.8 to −10.2) and isoelectric points (pI: from 10.69 to 2.95). 50 peptides had positive net charge and pI > 7.0, while 28 peptides had negative net charge and pI < 7.0 (Supplementary Table S1A). Of the other legumes, only cationic NCR peptides were studied (Supplementary Table S1B).
as §2

[8] = 3 h, ~10^7 log phase bacteria, peptides ≤25 µM

CC[C@H](C)[C@H](N)C(=O)N[C@H](C(=O)N[C@H](C(=O)N[C@@H](CC(N)=O)C(=O)N[C@@H](CCCNC(=N)N)C(=O)N[C@@H](CCCNC(=N)N)C(=O)N[C@@H](CS)C(=O)N[C@@H](CCCCN)C(=O)N[C@@H](CO)C(=O)N[C@@H](Cc1c[nH]cn1)C(=O)N[C@@H](CCCCN)C(=O)N[C@@H](CC(=O)O)C(=O)N[C@@H](CS)C(=O)N1CCC[C@H]1C(=O)NCC(=O)N[C@@H](Cc1ccccc1)C(=O)NCC(=O)N[C@@H](CCCCN)C(=O)N[C@@H](CS)C(=O)N[C@@H](CC(C)C)C(=O)N[C@@H](CCCCN)C(=O)N[C@@H](CC(C)C)C(=O)N[C@@H](CCCCN)C(=O)N[C@@H](CS)C(=O)N[C@H](C(=O)N[C@@H](Cc1ccc(O)cc1)C(=O)N[C@H](C(=O)N1CCC[C@H]1C(=O)N[C@@H](CCCCN)C(=O)N[C@@H](CCCNC(=N)N)C(=O)O)[C@@H](C)O)C(C)C)[C@@H](C)O)[C@@H](C)CC [GoNCR308] (H-IITNRRCKSHKDCPGFGKCLKLKCVYTPKR-OH; N-terminus assumed)
Ability to kill E. faecalis [1]: able to kill

Clc1ccc(COC(Cn2ccnc2)c2ccc(Cl)cc2Cl)c(Cl)c1 (stereo not shown) [Miconazole, reference compound]
MFC ([2]; Candida albicans, W01STRAIN, C. albicans W01, two-fold dilution series, lowest concentration completely eliminating viable C. albicans): 50600 µM (≈ 21000 µg/mL)

CC(C)[C@H](NC(=O)CNC(=O)[C@H](CCCNC(=N)N)NC(=O)[C@H](CCCCN)NC(=O)[C@@H]1CCCN1C(=O)[C@@H](N)CCCCN)C(=O)N[C@@H](CC(N)=O)C(=O)N[C@@H](Cc1ccccc1)C(=O)N[C@@H](CCCNC(=N)N)C(=O)N[C@@H](CS)C(=O)N[C@@H](CCCNC(=N)N)C(=O)N[C@@H](CCCCN)C(=O)NCC(=O)N[C@@H](CCCCN)C(N)=O [MsNCR463_17-30] (H-KPKRGVNFRCRKGK-NH2)
MBC ([3]; ATCC 17978, 3 h): 3.125 µM (≈ 5.23 µg/mL)
MFC ([2]; W01 strain): 3.125 µM (≈ 5.23 µg/mL)

CC[C@H](C)[C@H](NC(=O)[C@H](Cc1ccc(O)cc1)NC(=O)[C@H](C)N)C(=O)N[C@@H](CCC(=O)O)C(=O)N[C@@H](CS)C(=O)N[C@@H](CCC(=O)O)C(=O)N[C@H](C(=O)N[C@@H](CC(=O)O)C(=O)N[C@@H](CC(=O)O)C(=O)N[C@@H](CC(=O)O)C(=O)N[C@@H](CS)C(=O)N1CCC[C@H]1C(=O)N[C@@H](CCCCN)C(=O)N1CCC[C@H]1C(=O)N[C@@H](CCSC)C(=O)N[C@@H](CCCCN)C(=O)N[C@@H](CC(N)=O)C(=O)N[C@@H](CO)C(=O)N[C@@H](Cc1c[nH]cn1)C(=O)N1CCC[C@H]1C(=O)N[C@@H](CC(=O)O)C(=O)N[C@H](C(=O)N[C@@H](Cc1ccc(O)cc1)C(=O)N[C@@H](Cc1ccc(O)cc1)C(=O)N[C@@H](CCCCN)C(=O)N[C@@H](CS)C(=O)N[C@H](C(=O)N[C@@H](CCCCN)C(=O)N[C@@H](Cc1c[nH]cn1)C(=O)N[C@@H](CCCNC(=N)N)C(=O)N[C@@H](CS)C(=O)N[C@@H](CCC(N)=O)C(=O)N[C@@H](Cc1c[nH]c2ccccc12)C(=O)N[C@@H](C)C(=O)N[C@@H](Cc1c[nH]c2ccccc12)C(=O)N[C@@H](CCCCN)C(=O)O)C(C)C)[C@@H](C)O)C(C)C [NCR147] (H-AYIECEVDDDCPKPMKNSHPDTYYKCVKHRCQWAWK-OH; N-terminus assumed)
Activity against P. aeruginosa [4, 8]: showed activity
MBC Pseudomonas aeruginosa [4]: 12.5 µM (≈ 54.9 µg/mL)
Activity against E. coli [5, 8]: showed activity
MBC Escherichia coli [5]: 25 µM (≈ 110 µg/mL)
Activity against L. monocytogenes [6, 8]: showed activity
MBC Listeria monocytogenes [6]: 12.5 µM (≈ 54.9 µg/mL)
Activity against A. baumannii [3, 8]: showed activity
MBC Acinetobacter baumannii ([3]; ATCC 17978, 3 h): 3.125 µM (≈ 13.7 µg/mL)

CC[C@H](C)[C@H](NC(=O)CNC(=O)[C@H](CCC(N)=O)NC(=O)[C@@H](NC(=O)[C@H](CS)NC(=O)[C@H](CCCNC(=N)N)NC(=O)[C@H](CC(C)C)NC(=O)[C@H](CCCNC(=N)N)NC(=O)[C@H](CCCNC(=N)N)NC(=O)[C@H](CC(N)=O)NC(=O)[C@@H](NC(=O)[C@H](Cc1ccc(O)cc1)NC(=O)[C@H](CCSC)NC(=O)[C@@H]1CCCN1C(=O)[C@H](Cc1ccc(O)cc1)NC(=O)[C@H](CC(C)C)NC(=O)[C@@H](NC(=O)[C@H](CC(N)=O)NC(=O)[C@H](CS)NC(=O)[C@H](CC(=O)O)NC(=O)[C@@H](NC(=O)[C@H](CC(=O)O)NC(=O)[C@H](CO)NC(=O)[C@@H](NC(=O)[C@H](CS)NC(=O)[C@H](CCC(=O)O)NC(=O)[C@@H](N)CO)[C@@H](C)CC)[C@@H](C)O)C(C)C)[C@@H](C)CC)[C@@H](C)CC)C(=O)N[C@@H](CS)C(=O)N[C@@H](Cc1c[nH]cn1)C(=O)N[C@H](C(=O)N[C@H](C(=O)N[C@H](C(=O)N[C@@H](C)C(=O)N[C@@H](CCCNC(=N)N)C(=O)N[C@@H](CCCNC(=N)N)C(=O)N[C@@H](CCCNC(=N)N)C(=O)O)[C@@H](C)O)[C@@H](C)O)[C@@H](C)O [NCR299] (H-SECISDTDCNVLYPMYINRRLRCIQGICHTTTARRR-OH; N-terminus assumed)
Ability to kill E. faecalis [1]: able to kill
MBC Enterococcus faecalis ([1]; ATCC 29212, 3 h): 12.5 µM (≈ 53.2 µg/mL)
MBC Pseudomonas aeruginosa [4]: 3.125 µM (≈ 13.3 µg/mL)
MBC Escherichia coli [5]: 12.5 µM (≈ 53.2 µg/mL)
MBC Listeria monocytogenes [6]: 12.5 µM (≈ 53.2 µg/mL)
Antibacterial spectrum over the eight tested bacterial strains [7]: effective against five or four strains

CC[C@H](C)[C@H](NC(=O)[C@@H]1CCCN1C(=O)[C@H](CC(C)C)NC(=O)[C@H](CS)NC(=O)[C@H](CCCCN)NC(=O)[C@H](CS)NC(=O)[C@H](CCSC)NC(=O)[C@H](CCCNC(=N)N)NC(=O)[C@H](CCCNC(=N)N)NC(=O)[C@@H](NC(=O)[C@H](CS)NC(=O)[C@H](CCCNC(=N)N)NC(=O)[C@@H]1CCCN1C(=O)[C@H](CCC(=O)O)NC(=O)[C@H](CCSC)NC(=O)CNC(=O)[C@@H]1CCCN1C(=O)[C@@H]1CCCN1C(=O)[C@H](CS)NC(=O)[C@H](CCSC)NC(=O)[C@H](Cc1c[nH]cn1)NC(=O)[C@@H]1CCCN1C(=O)[C@@H]1CCCN1C(=O)[C@H](CS)NC(=O)[C@H](Cc1c[nH]cn1)NC(=O)[C@H](CO)NC(=O)[C@H](CC(=O)O)NC(=O)[C@@H](NC(=O)[C@@H](NC(=O)[C@H](CS)NC(=O)[C@H](CC(C)C)NC(=O)[C@@H](N)Cc1ccc(O)cc1)C(C)C)[C@@H](C)O)C(C)C)C(=O)NCC(=O)N[C@@H](Cc1c[nH]c2ccccc12)C(=O)N[C@@H](CCCNC(=N)N)C(=O)N[C@@H](CCCCN)C(=O)N[C@@H](Cc1ccc(O)cc1)C(=O)N[C@@H](Cc1ccccc1)C(=O)N[C@H](C(=O)N1CCC[C@H]1C(=O)O)C(C)C [NCR336] (H-YLCVTDSHCPPHMCPPGMEPRCVRRMCKCLPIGWRKYFVP-OH; N-terminus assumed)
Ability to kill E. faecalis [1]: able to kill
Antibacterial spectrum over the eight tested bacterial strains [7]: capable of killing all tested bacteria; also recorded: active against all the eight tested pathogens

CSCC[C@H](NC(=O)[C@H](CC(N)=O)NC(=O)[C@H](Cc1ccccc1)NC(=O)[C@@H](NC(=O)[C@H](CC(C)C)NC(=O)[C@H](CCCCN)NC(=O)[C@H](CCCCN)NC(=O)[C@H](CCCCN)NC(=O)[C@H](CCCCN)NC(=O)[C@H](CCCCN)NC(=O)[C@H](CC(C)C)NC(=O)[C@H](CCCCN)NC(=O)[C@H](CCCCN)NC(=O)[C@H](CCCCN)NC(=O)[C@H](Cc1c[nH]cn1)NC(=O)[C@H](CCCCN)NC(=O)[C@H](CCC(N)=O)NC(=O)[C@@H](NC(=O)[C@H](CS)NC(=O)[C@@H](N)Cc1ccc(O)cc1)C(C)C)[C@@H](C)O)C(N)=O [PsNCR349_31-50] (H-YCVQKHKKKLKKKKKLTFNM-NH2)
MBC ([3]; ATCC 17978, 3 h): 6.25 µM (≈ 15.8 µg/mL)
MFC ([2]; W01 strain): 1.6 µM (≈ 4.03 µg/mL)
